# Results as given in US9963480B2, “Nucleoside phosphoramidate compound and use thereof” (priority 2013, dated 2018).
# pEC50: −log10 of the molar value.
# System: HCV 1b replicon
# Assay: Antiviral activity assay in HCV replicon system (Huh7 1b cells, luciferase reporter)
# Assay type: cell-based
# Details: Hepatitis C virus, Huh-7, 72 h
# Excerpt: The cell line Huh7 1b, which was provided by WuXi AppTec Co., Ltd. in Shanghai, contained an HCV 1b replicon with a stable Luciferase (Luc) reporter. It was constructed by cloning HCV nonstructural protein gene, neo (G418 resistance) and luciferase reporter gene into the pBR vector through gene recombination technology. Then the vector carrying the HCV replicon was transfected into Huh7 cells, and the transfected Huh7 cells were screened by G418 resistance. The HCV replicon was stably replicated, and the related protein and luciferase were stably expressed in Huh7 cells. The cells model was used for in-vitro screen of anti-HCV compounds. The anti-HCV activity of the compounds was measured by detecting the level of luciferase expression. See Lohmann V, et al. 1999. Replication of subgenomic hepatitis C virus RNAs in a hepatoma cell line. Science. 285(5424):110-113.
# The control drug used in this experimental example was the compound of Example 25 in WO 2008/121634 (PCT/US2008/058183), i.e. (S)-2-{[(2R,3R,4R,5R)-5-(2,4-dioxo-3,4-dihydro-2H-pyrimidin-1-yl)-4-fluoro-3-hydr oxy-4-methyl-tetrahydro-furan-2-ylmethoxy]-phenoxy-phosphorylamino}-propanoic acid isopropyl ester. This compound was prepared according to the method described in J. Org. chem, 2011, 76, 8311-8319, and identified by H-NMR and mass spectrometry.
# • 2.1 compound preparation: adding each of the compounds listed in Table 2 to 96-well plates using a POD™ 810 Automation Platform (LabCyte Corporation, USA), with 10 μM of each of the compounds as a starting concentration and in duplicate; serially diluting each of the compounds in 3-fold fashion and formulating 10 concentrations, with the final concentration of DMSO being 0.5%; • 2.2 cells preparation: seeding the Huh71b cells into 96-well plates respectively with a volume of 125 μl and 8×10^3 cells/well, and incubating in a 37° C., 5% CO2 incubator for 72 h; • 2.3 detection of cell activity: adding 30 μl per cell of the CellTiter-Fluor™ Reagent, incubating in a 37° C., 5% CO2 incubator for 1 h, measuring the fluorescence signal values with a fluorometer, and using the obtained data for calculation of cytotoxicities of the compounds; • 2.4 Bright-Glo detection: adding 100 μl per well of the Bright-Glo™ Luciferase Substrate, using a chemiluminescence detection system EnVision™ (PerkinElmer, USA) to detect the fluorescence signal values within 5 minutes, and using the obtained data for calculation of potencies of the compounds. • 2.5 data processing: converting the obtained data to a percentage of cell viability (Viability %) using the following formula:
# [formula] • CPD: fluorescence signal value of the well added with the compound • ZPE (Zero percent effect): fluorescence signal value of the control well with zero percent effect. • Processing the raw data to calculate a percentage of inhibition (Inhibition %) using the following formula:
# [formula] • CPD: fluorescence signal value of the well added with the compound; • HPE (Hundred percent effect): fluorescence signal value of the control well with hundred percent effect; • ZPE (Zero percent effect): fluorescence signal value of the control well with zero percent effect.
# The inhibition percentage was processed by the GraphPad Prism software to obtain the corresponding curves and EC50 values.
row,Structure (SMILES),pEC50
1,"CC(C)OC(=O)[C@H](C)NP(=O)(OC[C@H]1O[C@@H](n2ccc(=O)[nH]c2=O)[C@](C)(F)[C@@H]1O)Oc1ccc2[nH]ccc2c1 (stereo partly drawn) [Example 20, (2S)-2-(((1H-indol-5-yloxy)(((2R,3R,4R,5R)-5-(2,4-dioxo-3,4-dihydropyrimidin-1(2H)-yl)-4-fluoro-3-hydroxy-4-methyltetrahydrofuran-2-yl)methoxy)phosphoryl)amino)propanoic Acid Isopropyl Ester]",5.41

# Same assay, conditions: Hepatitis C virus, Huh-7; Huh7 1b cells with HCV 1b replicon, Bright-Glo luciferase, 72 h; read-out: EC50
row,Structure (SMILES),pEC50
1,COc1ccc(-c2ccc(OP(=O)(N[C@@H](C)C(=O)OC(C)C)OC[C@H]3O[C@@H](n4ccc(=O)[nH]c4=O)[C@](C)(F)[C@@H]3O)cc2)cc1 (stereo partly shown) [Example 36],7.14
2,"Cc1cc(-c2ccc(OP(=O)(N[C@@H](C)C(=O)OC(C)C)OC[C@H]3O[C@@H](n4ccc(=O)[nH]c4=O)[C@](C)(F)[C@@H]3O)cc2)ccc1F (stereo partly drawn) [Example 41, (2S)-2-((((4′-fluoro-3′-methyl-[1,1′-biphenyl]-4-yl)oxy)(((2R,3R,4R,5R)-5-(2,4-dioxo-3,4-dihydropyrimidin-1(2H)-yl)-4-fluoro-3-hydroxy-4-methyltetrahydrofuran-2-yl)methoxy)phosphoryl)amino)propanoic Acid Isopropyl Ester]",7.30
3,Cc1ccc(-c2ccc(OP(=O)(N[C@@H](C)C(=O)OC(C)C)OC[C@H]3O[C@@H](n4ccc(=O)[nH]c4=O)[C@](C)(F)[C@@H]3O)cc2)cc1F (stereo partly shown) [Example 40],7.25
4,"COC(=O)Cc1coc2c(OP(=O)(N[C@@H](C)C(=O)OC(C)C)OC[C@H]3O[C@@H](n4ccc(=O)[nH]c4=O)[C@](C)(F)[C@@H]3O)cccc12 (stereo partly drawn) [Example 22, (2S)-2-(((3-methoxycarbonylmethyl-benzofuran-7-yloxy)(((2R,3R,4R,5R)-5-(2,4-dioxo-3,4-dihydropyrimidin-1(2H)-yl)-4-fluoro-3-hydroxy-4-methyltetrahydrofuran-2-yl)methoxy)phosphoryl)amino)propanoic Acid Isopropyl Ester]",6.50
5,"Cc1ccc(-c2ccc(OP(=O)(N[C@@H](C)C(=O)OC(C)C)OC[C@H]3O[C@@H](n4ccc(=O)[nH]c4=O)[C@](C)(F)[C@@H]3O)cc2)cc1 (stereo partly drawn) [Example 42, (2S)-2-((((4′-methyl-[1,1′-biphenyl]-4-yl)oxy)(((2R,3R,4R,5R)-5-(2,4-dioxo-3,4-dihydropyrimidin-1(2H)-yl)-4-fluoro-3-hydroxy-4-methyltetrahydrofuran-2-yl)methoxy)phosphoryl)amino)propanoic Acid Isopropyl Ester]",6.90
6,CC(C)OC(=O)[C@H](C)NP(=O)(OC[C@H]1O[C@@H](n2ccc(=O)[nH]c2=O)[C@](C)(F)[C@@H]1O)Oc1ccc(-c2cncs2)cc1 (stereo partly shown) [Example 17],6.59
7,"Cc1cc2c(F)c(O[P@](=O)(N[C@@H](C)C(=O)OC(C)C)OC[C@H]3O[C@@H](n4ccc(=O)[nH]c4=O)[C@](C)(F)[C@@H]3O)ccc2n1C [Example 33, (2S)-2-(((S)-((4-fluoro-1,2-dimethyl-1H-indol-5-yl)oxy)(((2R,3R,4R,5R)-5-(2,4-dioxo-3,4-dihydropyrimidin-1(2H)-yl)-4-fluoro-3-hydroxy-4-methyltetrahydrofuran-2-yl)methoxy)phosphoryl)amino)propanoic Acid Isopropyl Ester]",7.48
8,CC(C)OC(=O)[C@H](C)NP(=O)(OC[C@H]1O[C@@H](n2ccc(=O)[nH]c2=O)[C@](C)(F)[C@@H]1O)Oc1ccc2oc(-c3ccccc3)cc(=O)c2c1 (stereo partly shown) [Example 23],5.35
9,"Cc1cc2c(F)c(O[P@@](=O)(N[C@@H](C)C(=O)OC(C)C)OC[C@H]3O[C@@H](n4ccc(=O)[nH]c4=O)[C@](C)(F)[C@@H]3O)ccc2n1C [Example 43, (2S)-2-(((R)-((4-fluoro-1,2-dimethyl-1H-indol-5-yl)oxy)(((2R,3R,4R,5R)-5-(2,4-dioxo-3,4-dihydropyrimidin-1(2H)-yl)-4-fluoro-3-hydroxy-4-methyltetrahydrofuran-2-yl)methoxy)phosphoryl)amino)propanoic Acid Isopropyl Ester]",7.16
10,"C[C@H](NP(=O)(OC[C@H]1O[C@@H](n2ccc(=O)[nH]c2=O)[C@](C)(F)[C@@H]1O)Oc1cccc2c1CCCC2)C(=O)OC(C)(C)C (stereo partly drawn) [Example 15, (2S)-2-(((5,6,7,8-tetrahydronaphthalen-1-yloxy)(((2R,3R,4R,5R)-5-(2,4-dioxo-3,4-dihydropyrimidin-1(2H)-yl)-4-fluoro-3-hydroxy-4-methyltetrahydrofuran-2-yl)methoxy)phosphoryl)amino)propanoic Acid t-butyl Ester]",< 5.48
11,"CC(C)OC(=O)[C@H](C)NP(=O)(OC[C@H]1O[C@@H](n2ccc(=O)[nH]c2=O)[C@](C)(F)[C@@H]1O)Oc1ccccc1-c1ccccc1 (stereo partly drawn) [Example 3, (2S)-2-((([1,1′-biphenyl]-2-yloxy)(((2R,3R,4R,5R)-5-(2,4-dioxo-3,4-dihydropyrimidin-1(2H)-yl)-4-fluoro-3-hydroxy-4-methyltetrahydrofuran-2-yl)methoxy)phosphoryl)amino)propanoic Acid Isopropyl Ester]",6.91
12,"CC(C)OC(=O)[C@H](C)NP(=O)(OC[C@H]1O[C@@H](n2ccc(=O)[nH]c2=O)[C@](C)(F)[C@@H]1O)Oc1ccc(-c2cccc(Cl)c2)cc1 (stereo partly drawn) [Example 32, (2S)-2-((((3′-chloro-[1,1′-biphenyl]-4-yl)oxy)(((2R,3R,4R,5R)-5-(2,4-dioxo-3,4-dihydropyrimidin-1(2H)-yl)-4-fluoro-3-hydroxy-4-methyltetrahydrofuran-2-yl)methoxy)phosphoryl)amino)propanoic Acid Isopropyl Ester]",7.17
13,CC(C)OC(=O)[C@H](C)NP(=O)(OC[C@H]1O[C@@H](n2ccc(=O)[nH]c2=O)[C@](C)(F)[C@@H]1O)Oc1ccc(C#Cc2ccccc2)cc1 (stereo partly shown) [Example 11],6.72
14,"COC(=O)CNP(=O)(OC[C@H]1O[C@@H](n2ccc(=O)[nH]c2=O)[C@](C)(F)[C@@H]1O)Oc1cccc2c1CCCC2 (stereo partly drawn) [Example 14, (2S)-2-(((5,6,7,8-tetrahydronaphthalen-1-yloxy)(((2R,3R,4R,5R)-5-(2,4-dioxo-3,4-dihydropyrimidin-1(2H)-yl)-4-fluoro-3-hydroxy-4-methyltetrahydrofuran-2-yl)methoxy)phosphoryl)amino)acetic Acid Methyl Ester]",6.65
15,"CC(C)OC(=O)[C@H](C)NP(=O)(OC[C@H]1O[C@@H](n2ccc(=O)[nH]c2=O)[C@](C)(F)[C@@H]1O)Oc1ccc(-c2ccc(Cl)cc2)cc1 (stereo partly drawn) [Example 27, (2S)-2-((((4′-chloro-[1,1′-biphenyl]-4-yl)oxy)(((2R,3R,4R,5R)-5-(2,4-dioxo-3,4-dihydropyrimidin-1(2H)-yl)-4-fluoro-3-hydroxy-4-methyltetrahydrofuran-2-yl)methoxy)phosphoryl)amino)propanoic Acid Isopropyl Ester]",7.01
16,CC(C)OC(=O)[C@H](C)NP(=O)(OC[C@H]1O[C@@H](n2ccc(=O)[nH]c2=O)[C@](C)(F)[C@@H]1O)Oc1ccc(-c2ccc(Cl)cc2F)cc1 (stereo partly shown) [Example 39],7.21
17,"Cc1cc2c(F)c(OP(=O)(N[C@@H](C)C(=O)OC(C)C)OC[C@H]3O[C@@H](n4ccc(=O)[nH]c4=O)[C@](C)(F)[C@@H]3O)ccc2[nH]1 (stereo partly drawn) [Example 21, (2S)-2-(((4-fluoro-2-methyl-1H-indol-5-yloxy)(((2R,3R,4R,5R)-5-(2,4-dioxo-3,4-dihydropyrimidin-1(2H)-yl)-4-fluoro-3-hydroxy-4-methyltetrahydrofuran-2-yl)methoxy)phosphoryl)amino)propanoic Acid Isopropyl Ester]",6.59
18,"CC(C)OC(=O)[C@H](C)NP(=O)(OC[C@H]1O[C@@H](n2ccc(=O)[nH]c2=O)[C@](C)(F)[C@@H]1O)Oc1ccc(-c2cccc(F)c2)cc1 (stereo partly drawn) [Example 31, (2S)-2-((((3′-fluoro-[1,1′-biphenyl]-4-yl)oxy)(((2R,3R,4R,5R)-5-(2,4-dioxo-3,4-dihydropyrimidin-1(2H)-yl)-4-fluoro-3-hydroxy-4-methyltetrahydrofuran-2-yl)methoxy)phosphoryl)amino)propanoic Acid Isopropyl Ester]",6.99
